Measurements as given in US20230212131A1, “COLLAGEN 1 TRANSLATION INHIBITORS AND METHODS OF USE THEREOF” (Anima Biotech Inc., priority 2020, published 2023).

tested on: collagen 1 (COL1); test: WI-38 collagen 1 inhibition assay; type: cell-based, human; conditions: Cellular EC50, WI-38 cells; values are classes of LogEC50
In short: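 WI-38 fibroblasts serum-starved (0.25% FBS 2 h, then none 24 h), then given a collagen induction cocktail together with compound. Cells fixed, immunostained for collagen I with DAPI counterstain, and imaged at 20×; per-cell fluorescence quantified by image analysis.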

Structure (SMILES) | COL1 Efficacy (LogEC50)
CN1CCC[C@@H](C(=O)N2CCN(c3ccc(C(=O)Nc4nc(-c5ccccc5Cl)cs4)nc3)CC2)C1 [Compound 485, (R)—N-(4-(2-chlorophenyl)thiazol-2-yl)-5-(4-(1-methylpiperidine-3-carbonyl)piperazin-1-yl)picolinamide] | +++ (+++: <−6)
CC(=O)N1CCC(Oc2ccc(C(=O)Nc3nc(-c4ccccc4Cl)cs3)nc2)CC1 [compound 440, 5-((1-acetylpiperidin-4-yl)oxy)-N-(4-(2-chlorophenyl)thiazol-2-yl)picolinamide] | +++ (+++: <−6)
O=C(Nc1nc(-c2ccc(Cl)cc2Cl)cs1)c1ccc(F)cc1 [Compound 308, N-(4-(2,4-dichlorophenyl)thiazol-2-yl)-4-fluorobenzamide] | ++ (++: −5 to −6)
CS(=O)(=O)N1CCN(C(=O)[C@H]2C[C@@H](C(=O)Nc3nc(-c4ccccc4Cl)cs3)C2)CC1 [compound 429] | + (+: >−5)
N#Cc1ccccc1-c1csc(NC(=O)c2ccc(N3CCOCC3)cc2)n1 [compound 361, N-[4-(2-cyanophenyl)thiazol-2-yl]-4-morpholino-benzamide] | − (−: inactive)
COc1cnc(C(=O)Nc2nc(-c3ccccc3Cl)cs2)cn1 [compound 330, N-[4-(2-chlorophenyl)thiazol-2-yl]-5-methoxy-pyrazine-2-carboxamide] | ++ (++: −5 to −6)
O=C(Nc1nc(-c2ccccc2Cl)cs1)c1ccc(N2CCN(C(=O)CO)CC2)cn1 [Compound 445, N-(4-(2-chlorophenyl)thiazol-2-yl)-5-(4-(2-hydroxyacetyl)piperazin-1-yl)picolinamide] | +++ (+++: <−6)
COc1ccc(C(=O)Nc2nc(-c3cnn(C)c3)cs2)cc1 [Compound 331, 4-methoxy-N-[4-(1-methylpyrazol-4-yl)thiazol-2-yl]benzamide] | + (+: >−5)
O=C(Nc1nc(-c2ccccc2Cl)cs1)c1ccc(N2CCCC2)cn1 [compound 481, N-(4-(2-chlorophenyl)thiazol-2-yl)-5-(pyrrolidin-1-yl)picolinamide] | +++ (+++: <−6)
O=C(Nc1nc(-c2ccccc2Cl)cs1)c1cnc(N2CCOCC2)nc1 [compound 358, N-[4-(2-chlorophenyl)thiazol-2-yl]-2-morpholino-pyrimidine-5-carboxamide] | − (−: inactive)
Cc1ccc(C(=O)Nc2nc(-c3cccc4c3OCCO4)cs2)cn1 [Compound 342, N-[4-(2,3-dihydro-1,4-benzodioxin-5-yl)thiazol-2-yl]-6-methyl-pyridine-3-carboxamide] | ++ (++: −5 to −6)
COc1ccc(C(=O)Nc2nc(-c3cncnc3)cs2)cc1 [Compound 338, 4-methoxy-N-(4-pyrimidin-5-ylthiazol-2-yl)benzamide] | + (+: >−5)
COc1cc(N2CCOCC2)ccc1C(=O)Nc1nc(-c2ccccc2Cl)cs1 [Compound 441, N-(4-(2-chlorophenyl)thiazol-2-yl)-2-methoxy-4-morpholinobenzamide] | ++ (++: −5 to −6)
Cc1ccc(C(=O)Nc2nc(-c3cnccc3C)cs2)cn1 [compound 348, 6-methyl-N-[4-(4-methyl-3-pyridyl)thiazol-2-yl]pyridine-3-carboxamide] | + (+: >−5)
CC(=O)N1CCN(c2ccc(C(=O)Nc3nc(-c4cccnc4CO)cs3)nc2)CC1 [compound 472, 5-(4-acetylpiperazin-1-yl)-N-(4-(2-(hydroxymethyl)pyridin-3-yl)thiazol-2-yl)picolinamide] | ++ (++: −5 to −6)
CC(=O)N1CCN(c2ccc(C(=O)Nc3nc(-c4ccccc4CO)cs3)nc2)CC1 [compound 470, 5-(4-acetylpiperazin-1-yl)-N-(4-(2-(hydroxymethyl)phenyl)thiazol-2-yl)picolinamide] | +++ (+++: <−6)
COc1ccc(C(=O)Nc2nc(-c3ccc(C)cc3C)cs2)cc1 [Compound 301, N-(4-(2,4-dimethylphenyl)thiazol-2-yl)-4-methoxybenzamide] | +++ (+++: <−6)
COc1ccc(C(=O)Nc2nc(-c3ccc(F)cc3Cl)cs2)cc1 [Compound 321, N-[4-(2-chloro-4-fluoro-phenyl)thiazol-2-yl]-4-methoxy-benzamide] | +++ (+++: <−6)
CS(=O)(=O)N1CCN(C23CC(C(=O)Nc4nc(-c5ccccc5Cl)cs4)(C2)C3)CC1 [Compound 418, N-(4-(2-chlorophenyl)thiazol-2-yl)-3-(4-(methylsulfonyl)piperazin-1-yl)bicyclo[1.1.1]pentane-1-carboxamide] | ++ (++: −5 to −6)
Cc1ccc(C(=O)Nc2nc(-c3ccccc3Cl)cs2)nc1 [compound 329, N-[4-(2-chlorophenyl)thiazol-2-yl]-5-methyl-pyridine-2-carboxamide] | ++ (++: −5 to −6)
O=C(Nc1nc(-c2ccccc2Cl)cs1)c1ccc(C2CCS(=O)(=O)CC2)cn1 [Compound 383, N-(4-(2-chlorophenyl)thiazol-2-yl)-5-(1,1-dioxidotetrahydro-2H-thiopyran-4-yl)picolinamide] | +++ (+++: <−6)

Structure (SMILES) | COL1 Efficacy (LogEC50)
Cc1ncccc1-c1csc(NC(=O)c2cnc(N3CCOCC3)nc2)n1 [compound 374, N-[4-(2-methyl-3-pyridyl)thiazol-2-yl]-2-morpholino-pyrimidine-5-carboxamide] | + (+: >−5)
COc1ccccc1-c1csc(NC(=O)c2ccc(N3CCOCC3)cc2)n1 [compound 351, N-[4-(2-methoxyphenyl)thiazol-2-yl]-4-morpholino-benzamide] | +++ (+++: <−6)
CN(C(=O)c1ccc(N2CCOCC2)cn1)c1nc(-c2ccccc2Cl)cs1 [Compound 400, N-(4-(2-chlorophenyl)thiazol-2-yl)-N-methyl-5-morpholinopicolinamide] | ++ (++: −5 to −6)
Cc1ccc(C(=O)Nc2nc(-c3ccccc3Cl)cs2)cn1 [compound 318, N-[4-(2-chlorophenyl)thiazol-2-yl]-6-methyl-pyridine-3-carboxamide] | +++ (+++: <−6)
Cc1ccc(C(=O)Nc2nc(-c3cncnc3)cs2)cn1 [Compound 340, 6-methyl-N-(4-pyrimidin-5-ylthiazol-2-yl)pyridine-3-carboxamide] | +++ (+++: <−6)
CC(=O)N1CC2(C1)CN(c1ccc(C(=O)Nc3nc(-c4ccccc4Cl)cs3)nc1)C2 [compound 449, 5-(6-acetyl-2,6-diazaspiro[3.3]heptan-2-yl)-N-(4-(2-chlorophenyl)thiazol-2-yl)picolinamide] | +++ (+++: <−6)
CC(=O)N1CCN(c2csc(C(=O)Nc3nc(-c4ccccc4Cl)cs3)c2)CC1 [Compound 462, 4-(4-acetylpiperazin-1-yl)-N-(4-(2-chlorophenyl)thiazol-2-yl)thiophene-2-carboxamide] | ++ (++: −5 to −6)
O=C(Nc1nc(-c2ccccc2Cl)cs1)c1ccc(C(=O)N2CCOCC2)cc1 [compound 384, N-(4-(2-chlorophenyl)thiazol-2-yl)-4-(morpholine-4-carbonyl)benzamide] | ++ (++: −5 to −6)
COCC(=O)N1CC2(C1)CN(c1ccc(C(=O)Nc3nc(-c4ccccc4Cl)cs3)nc1)C2 [Compound 450, N-(4-(2-chlorophenyl)thiazol-2-yl)-5-(6-(2-methoxyacetyl)-2,6-diazaspiro[3.3]heptan-2-yl)picolinamide] | +++ (+++: <−6)
O=C(Nc1nc(-c2ccccc2Cl)cs1)c1cnc(N2CCOCC2)cn1 [compound 367, N-[4-(2-chlorophenyl)thiazol-2-yl]-5-morpholino-pyrazine-2-carboxamide] | +++ (+++: <−6)
O=C(Nc1nc(-c2ccc(Cl)cc2Cl)cs1)c1ccc(Cl)cc1 [Compound 303, 4-chloro-N-(4-(2,4-dichlorophenyl)thiazol-2-yl)benzamide] | + (+: >−5)
O=C(Nc1nc(-c2ccccc2Cl)cs1)c1ccc(Br)cc1 [compound 310] | +++ (+++: <−6)
O=C(Nc1nc(-c2ccccc2Cl)cs1)c1ccc(N2CCOCC2)cc1F [compound 408] | − (−: inactive)
CN1CCC(C(=O)N2CCN(c3ccc(C(=O)Nc4nc(-c5ccccc5Cl)cs4)nc3)CC2)C1 (stereo not drawn) [Compound 482, N-(4-(2-chlorophenyl)thiazol-2-yl)-5-(4-(1-methylpyrrolidine-3-carbonyl)piperazin-1-yl)picolinamide] | +++ (+++: <−6)
COc1ccc(C(=O)Nc2nc(-c3cc(C)cc(C)c3)cs2)cc1 [Compound 305, N-(4-(3,5-dimethylphenyl)thiazol-2-yl)-4-methoxybenzamide] | ++ (++: −5 to −6)
CN1CCC(C(=O)N2CCN(c3ccc(C(=O)Nc4nc(-c5ccccc5Cl)cs4)nc3)CC2)CC1 [Compound 483, N-(4-(2-chlorophenyl)thiazol-2-yl)-5-(4-(1-methylpiperidine-4-carbonyl)piperazin-1-yl)picolinamide] | +++ (+++: <−6)
Cc1ccc(C(=O)Nc2nc(-c3cccnc3C)cs2)cn1 [Compound 344, 6-methyl-N-[4-(2-methyl-3-pyridyl)thiazol-2-yl]pyridine-3-carboxamide] | +++ (+++: <−6)
Cc1ncc(C(=O)Nc2nc(-c3ccccc3Cl)cs2)cn1 [compound 320, N-[4-(2-chlorophenyl)thiazol-2-yl]-2-methyl-pyrimidine-5-carboxamide] | ++ (++: −5 to −6)
COc1ccc(C(=O)Nc2nc(-c3cncnc3C)cs2)cc1 [Compound 335, 4-methoxy-N-[4-(4-methylpyrimidin-5-yl)thiazol-2-yl]benzamide] | + (+: >−5)
CC(=O)N1CCN(c2cc(C)c(C(=O)Nc3nc(-c4ccccc4Cl)cs3)c(C)c2)CC1 [compound 474] | − (−: inactive)
O=C(Nc1nc(-c2ccccc2Cl)cs1)C12CC(C(=O)N3CCOCC3)(C1)C2 [compound 420] | + (+: >−5)
